A short description of the data set: Brain and plasma distribution after the 6 Hz assay (UHPLC-ESI-MS/MS). The following applies: 20 mg/kg IP, total concentration, sampled immediately after 6 Hz assay (one hour post dose). The class given is in vivo, mouse. The protocol:
Pharmacological distribution and bioanalysis. Immediately following characterization of seizure behaviors in the 6 Hz assay, animals were humanely sacrificed and brain and plasma samples were collected for analysis of the distribution of the administered compounds to these tissue compartments.
Brain sample homogenization. Pre-weighed whole mouse brains were thawed and 1 mL of deionized water and 1 mL of acetonitrile were added to each sample vial containing brain tissue. The samples were homogenized using a hand-held Omni™ TH homogenizer (Omni International, Kennesaw, GA, USA) until a uniform slurry was obtained. 1 mL aliquots of the slurry were transferred to clean 1.5 mL plastic Eppendorf tubes and the tubes were centrifuged at 13,000 rpm (15,871×g) for 20 minutes. The supernatant was collected and stored in clean labelled plastic Eppendorf vials at −80° C.
Mouse plasma and brain homogenate sample preparation. Mouse brain homogenates and mouse plasma samples, as well as calibration standards and QC samples prepared from control (“blank”) untreated mouse plasma, were extracted by protein precipitation. Briefly, 50 μL of each brain homogenate and mouse plasma sample (as well as each calibration standard, QC sample and blank mouse plasma sample) was mixed with 50 μL of internal standard solution [a 2,500 ng/mL solution of (S)-5-((1-benzylpyrrolidin-3-yl)(methyl)amino)-6-methyl-N-(thiazol-4-yl)pyridine-2-sulfonamide in deionized water/acetonitrile (1:1 v/v)], followed by addition of 50 μL of 6% (v/v) phosphoric acid in water. This was followed by the addition of 200 μL of acetonitrile. The samples were vortexed for 30 seconds and then centrifuged for 20 min at 13,000 rpm (15,871×g). The supernatants were further diluted four-fold with acetonitrile:water (1:1 v/v) and transferred to a 96-well plate prior to analysis. Calibration and QC samples were prepared in blank K2EDTA mouse plasma in the concentration range from 2.3 ng/mL to 4800 ng/mL with QC samples, including low QC (14 ng/mL), mid QC (225 ng/mL), and high QC (3600 ng/mL).
UHPLC-ESI-MS/MS analysis. Samples were then analyzed by ultra-high pressure liquid chromatography/electrospray ionization tandem mass spectroscopy (UHPLC-ESI MS/MS) using a Sciex™ TQ-5500 (AB Sciex™ LP, Concord, ON, Canada) mass spectrometer equipped with a Shimadzu Nexera™ UHPLC pump, column compartment and auto-sampler (Shimadzu Scientific Instruments, Inc., Columbia, MD, USA), using a binary gradient elution starting with 80% water (A)/20% acetonitrile (B), both solvents containing 0.1% formic acid. After 0.6 minutes, mobile phase B was increased linearly to 100% to 1 minute and elution was maintained at 100% mobile phase B until 1.5 minutes, and then allowed to re-equilibrate at the initial ration of 80% mobile phase A and 20% mobile phase B for a total run time of 2.5 minutes at a flow rate of 0.4 mL/min. The column used was ACE Excel™ 2 C18-PFP (2.1 mm i.d.×[…], 2 μm particle size)(Advanced Chromatography Technologies Ltd, Aberdeen, Scotland). The analytes and the internal standard were ionized by electrospray in the positive ion mode and detected by multiple reaction monitoring (MRM) using the transitions listed in Table 1.

SMILES strings stand for the structures. Values joined by “and” are separate entries in the source; they are usually repeats but may differ in a detail not shown here. Equal values may be shown once.

With `CCN[C@H](C)Cc1cccc(C(F)(F)F)c1` [(R)-fenfluramine, (R)—N-ethyl-1-(3-(trifluoromethyl)phenyl)propan-2-amine], the Brain concentration was 193.7 μM and 44797 ng/g; the Plasma concentration was 15.02 μM and 3474 ng/g.
For `CCNC(C)Cc1cccc(C(F)(F)F)c1` (racemic) [(rac)-fenfluramine, (R/S)—N-ethyl-1-(3-(trifluoromethyl)phenyl)propan-2-amine], the Brain concentration is 146.5 μM and 33870 ng/g; the Plasma concentration was 10.74 μM and 2484 ng/g.

For the origin of these results see patent publication US12558326B2, “Method for treating epilepsy” (Xenon Pharmaceuticals Inc., priority 2018, dated 2026).
